Reference: ChEMBL document CHEMBL5291721, “A preclinical secondary pharmacology resource illuminates target-adverse drug reaction associations of marketed drugs” (Nat Commun, 2023)

What was measured:
Vasopressin V1a receptor = Vasopressin V1a receptor (Homo sapiens, UniProt P37288)
[1] = target: Neuronal acetylcholine receptor subunit alpha-4 (Homo sapiens, UniProt P43681)
Adenosine receptor A3 = target: T1, Adenosine receptor A3 (Homo sapiens, UniProt P0DMS8)
T1 sequence (P0DMS8 whole entry): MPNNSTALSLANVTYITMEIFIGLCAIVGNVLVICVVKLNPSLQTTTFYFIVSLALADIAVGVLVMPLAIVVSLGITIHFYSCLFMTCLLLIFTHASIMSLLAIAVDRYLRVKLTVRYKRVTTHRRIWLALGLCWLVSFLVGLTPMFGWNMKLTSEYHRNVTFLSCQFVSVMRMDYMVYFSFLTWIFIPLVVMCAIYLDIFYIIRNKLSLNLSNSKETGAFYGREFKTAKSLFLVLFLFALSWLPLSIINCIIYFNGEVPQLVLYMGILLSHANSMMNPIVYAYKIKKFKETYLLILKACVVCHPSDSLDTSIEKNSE

[2] = target: Sodium-dependent noradrenaline transporter (Homo sapiens, UniProt P23975)
Sodium-dependent noradrenaline transporter, sequence (P23975 whole entry): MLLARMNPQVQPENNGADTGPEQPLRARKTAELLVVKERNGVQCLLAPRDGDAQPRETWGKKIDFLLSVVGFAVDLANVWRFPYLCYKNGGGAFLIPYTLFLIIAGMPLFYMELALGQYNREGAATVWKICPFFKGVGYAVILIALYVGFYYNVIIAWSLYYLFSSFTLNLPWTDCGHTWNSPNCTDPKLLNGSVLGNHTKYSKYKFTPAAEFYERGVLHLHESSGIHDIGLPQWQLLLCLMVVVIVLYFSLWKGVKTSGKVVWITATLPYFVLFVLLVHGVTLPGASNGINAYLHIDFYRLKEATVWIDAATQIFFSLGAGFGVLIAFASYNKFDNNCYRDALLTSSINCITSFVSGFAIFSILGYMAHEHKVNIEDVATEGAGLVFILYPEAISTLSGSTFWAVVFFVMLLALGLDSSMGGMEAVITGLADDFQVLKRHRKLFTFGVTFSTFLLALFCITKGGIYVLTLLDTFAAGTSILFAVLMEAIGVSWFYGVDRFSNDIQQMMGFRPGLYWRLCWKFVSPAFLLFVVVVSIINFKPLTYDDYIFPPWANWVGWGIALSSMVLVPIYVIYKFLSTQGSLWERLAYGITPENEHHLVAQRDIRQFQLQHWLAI

[3] = target: T2, Prostaglandin G/H synthase 1 (Rattus norvegicus, UniProt Q63921); format: functional
T2 sequence (Q63921 whole entry): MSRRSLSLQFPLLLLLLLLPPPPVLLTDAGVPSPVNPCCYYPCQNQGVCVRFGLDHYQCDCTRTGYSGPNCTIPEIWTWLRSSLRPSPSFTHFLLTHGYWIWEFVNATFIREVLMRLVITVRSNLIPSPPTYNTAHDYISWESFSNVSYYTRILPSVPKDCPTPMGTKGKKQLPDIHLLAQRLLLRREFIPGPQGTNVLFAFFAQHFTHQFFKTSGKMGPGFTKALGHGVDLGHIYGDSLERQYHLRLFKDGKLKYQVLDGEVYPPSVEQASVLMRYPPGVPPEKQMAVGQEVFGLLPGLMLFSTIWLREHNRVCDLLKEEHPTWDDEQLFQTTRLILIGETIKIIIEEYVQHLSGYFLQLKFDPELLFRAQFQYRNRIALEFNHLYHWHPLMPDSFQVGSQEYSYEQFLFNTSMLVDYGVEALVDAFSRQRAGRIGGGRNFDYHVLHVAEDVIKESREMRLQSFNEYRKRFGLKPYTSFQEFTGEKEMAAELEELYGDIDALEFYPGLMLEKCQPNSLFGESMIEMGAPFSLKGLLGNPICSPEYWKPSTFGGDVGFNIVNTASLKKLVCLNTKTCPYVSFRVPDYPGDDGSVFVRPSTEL

[4] = target: Voltage-gated inwardly rectifying potassium channel KCNH2 (Homo sapiens, UniProt Q12809); format: functional; conditions: read-out: AC50
Voltage-gated inwardly rectifying potassium channel KCNH2, sequence (Q12809 whole entry): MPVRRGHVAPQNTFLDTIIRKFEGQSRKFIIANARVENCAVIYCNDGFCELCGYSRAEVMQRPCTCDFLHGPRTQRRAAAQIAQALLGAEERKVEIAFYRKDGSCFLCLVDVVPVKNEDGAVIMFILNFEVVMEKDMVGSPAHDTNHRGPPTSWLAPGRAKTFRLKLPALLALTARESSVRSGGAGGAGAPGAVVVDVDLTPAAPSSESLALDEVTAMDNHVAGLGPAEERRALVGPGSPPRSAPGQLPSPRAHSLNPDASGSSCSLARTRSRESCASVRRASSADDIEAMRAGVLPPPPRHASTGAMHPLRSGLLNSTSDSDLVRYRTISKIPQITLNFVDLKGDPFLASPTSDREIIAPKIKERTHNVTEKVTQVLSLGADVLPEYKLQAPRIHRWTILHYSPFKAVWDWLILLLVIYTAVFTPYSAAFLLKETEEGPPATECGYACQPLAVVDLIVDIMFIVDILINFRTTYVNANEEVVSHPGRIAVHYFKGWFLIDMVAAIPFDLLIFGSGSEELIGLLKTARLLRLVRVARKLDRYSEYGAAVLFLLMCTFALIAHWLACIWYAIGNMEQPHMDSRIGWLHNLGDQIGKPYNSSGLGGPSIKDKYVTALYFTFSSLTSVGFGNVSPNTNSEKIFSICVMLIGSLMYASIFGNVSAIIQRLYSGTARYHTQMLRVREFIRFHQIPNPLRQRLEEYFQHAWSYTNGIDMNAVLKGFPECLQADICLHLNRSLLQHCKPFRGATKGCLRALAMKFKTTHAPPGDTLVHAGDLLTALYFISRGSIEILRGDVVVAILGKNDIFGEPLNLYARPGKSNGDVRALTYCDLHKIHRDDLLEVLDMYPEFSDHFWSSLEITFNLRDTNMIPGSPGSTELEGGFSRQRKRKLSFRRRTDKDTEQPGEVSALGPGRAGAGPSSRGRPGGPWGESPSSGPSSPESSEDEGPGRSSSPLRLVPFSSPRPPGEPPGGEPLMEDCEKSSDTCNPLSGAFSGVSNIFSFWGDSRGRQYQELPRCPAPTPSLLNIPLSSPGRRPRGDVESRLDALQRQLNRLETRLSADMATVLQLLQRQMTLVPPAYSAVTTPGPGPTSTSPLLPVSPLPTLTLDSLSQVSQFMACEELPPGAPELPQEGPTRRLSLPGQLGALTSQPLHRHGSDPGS

Bile salt export pump = Bile salt export pump (Homo sapiens, UniProt O95342); format: functional
Bile salt export pump, sequence (O95342 whole entry): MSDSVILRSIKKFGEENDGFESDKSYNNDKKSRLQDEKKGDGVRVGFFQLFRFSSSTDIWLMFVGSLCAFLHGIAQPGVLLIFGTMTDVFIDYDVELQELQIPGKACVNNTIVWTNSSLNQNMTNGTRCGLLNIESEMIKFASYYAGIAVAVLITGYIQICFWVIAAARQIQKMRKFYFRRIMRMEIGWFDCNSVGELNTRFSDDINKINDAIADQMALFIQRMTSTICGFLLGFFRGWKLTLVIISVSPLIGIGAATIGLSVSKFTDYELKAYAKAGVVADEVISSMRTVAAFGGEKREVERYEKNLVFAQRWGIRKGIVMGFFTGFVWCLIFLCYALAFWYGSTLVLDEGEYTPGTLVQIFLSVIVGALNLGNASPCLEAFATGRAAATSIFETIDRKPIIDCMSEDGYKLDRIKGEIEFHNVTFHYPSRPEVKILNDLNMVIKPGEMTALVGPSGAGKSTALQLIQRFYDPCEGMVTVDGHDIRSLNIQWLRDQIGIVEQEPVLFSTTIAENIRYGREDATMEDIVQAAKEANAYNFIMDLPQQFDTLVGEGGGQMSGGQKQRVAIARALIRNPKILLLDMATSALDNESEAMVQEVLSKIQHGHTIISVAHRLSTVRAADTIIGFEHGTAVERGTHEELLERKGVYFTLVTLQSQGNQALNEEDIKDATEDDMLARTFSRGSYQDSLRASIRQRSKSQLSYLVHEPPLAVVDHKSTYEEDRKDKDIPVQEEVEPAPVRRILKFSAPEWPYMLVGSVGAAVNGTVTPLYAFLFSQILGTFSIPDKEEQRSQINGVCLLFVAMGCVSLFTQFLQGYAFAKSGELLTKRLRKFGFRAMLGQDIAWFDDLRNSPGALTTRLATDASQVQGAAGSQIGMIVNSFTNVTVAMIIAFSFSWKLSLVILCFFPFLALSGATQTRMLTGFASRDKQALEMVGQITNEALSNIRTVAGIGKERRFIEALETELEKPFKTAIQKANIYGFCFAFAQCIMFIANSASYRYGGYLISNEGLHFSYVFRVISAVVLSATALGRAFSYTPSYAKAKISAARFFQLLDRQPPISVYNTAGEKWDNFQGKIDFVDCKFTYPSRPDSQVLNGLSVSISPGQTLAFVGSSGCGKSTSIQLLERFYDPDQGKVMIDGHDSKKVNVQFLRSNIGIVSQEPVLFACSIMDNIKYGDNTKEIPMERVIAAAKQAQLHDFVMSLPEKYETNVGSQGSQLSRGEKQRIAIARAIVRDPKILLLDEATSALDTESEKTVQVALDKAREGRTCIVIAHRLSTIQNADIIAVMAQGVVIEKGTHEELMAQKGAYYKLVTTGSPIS

[5] = target: 5-hydroxytryptamine receptor 2B (Homo sapiens, UniProt P41595); format: functional, cell-based
[6] = target: T3, 5-hydroxytryptamine receptor 2C (Homo sapiens, UniProt P28335)
T3 sequence (P28335 whole entry): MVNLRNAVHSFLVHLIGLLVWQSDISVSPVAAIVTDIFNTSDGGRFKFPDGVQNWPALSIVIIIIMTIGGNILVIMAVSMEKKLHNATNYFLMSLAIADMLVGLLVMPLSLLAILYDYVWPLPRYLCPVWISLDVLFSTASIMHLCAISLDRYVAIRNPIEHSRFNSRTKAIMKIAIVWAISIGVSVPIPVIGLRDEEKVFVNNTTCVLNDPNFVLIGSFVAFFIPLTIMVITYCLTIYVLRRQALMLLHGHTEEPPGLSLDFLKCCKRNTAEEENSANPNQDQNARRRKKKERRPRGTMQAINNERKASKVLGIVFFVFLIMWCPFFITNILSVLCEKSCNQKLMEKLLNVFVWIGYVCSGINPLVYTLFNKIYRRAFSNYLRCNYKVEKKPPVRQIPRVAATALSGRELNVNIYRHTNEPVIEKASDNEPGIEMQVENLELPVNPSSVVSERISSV

[7] = target: T4, 5-hydroxytryptamine receptor 3A (Homo sapiens, UniProt P46098); format: functional
T4 sequence (P46098 whole entry): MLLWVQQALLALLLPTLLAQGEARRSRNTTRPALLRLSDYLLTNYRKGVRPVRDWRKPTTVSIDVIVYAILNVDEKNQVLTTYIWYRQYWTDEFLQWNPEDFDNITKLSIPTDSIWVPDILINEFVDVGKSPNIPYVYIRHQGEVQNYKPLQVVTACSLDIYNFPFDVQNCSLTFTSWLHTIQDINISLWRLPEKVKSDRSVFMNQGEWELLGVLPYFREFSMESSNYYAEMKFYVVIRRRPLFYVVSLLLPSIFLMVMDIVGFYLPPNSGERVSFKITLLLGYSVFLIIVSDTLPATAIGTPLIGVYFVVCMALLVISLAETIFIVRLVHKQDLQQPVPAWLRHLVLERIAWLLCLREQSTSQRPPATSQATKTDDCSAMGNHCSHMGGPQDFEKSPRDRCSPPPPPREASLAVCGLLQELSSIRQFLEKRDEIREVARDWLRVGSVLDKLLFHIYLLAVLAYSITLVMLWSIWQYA

[8] = target: Beta-1 adrenergic receptor (Homo sapiens, UniProt P08588); format: functional
Beta-1 adrenergic receptor, sequence (P08588 whole entry): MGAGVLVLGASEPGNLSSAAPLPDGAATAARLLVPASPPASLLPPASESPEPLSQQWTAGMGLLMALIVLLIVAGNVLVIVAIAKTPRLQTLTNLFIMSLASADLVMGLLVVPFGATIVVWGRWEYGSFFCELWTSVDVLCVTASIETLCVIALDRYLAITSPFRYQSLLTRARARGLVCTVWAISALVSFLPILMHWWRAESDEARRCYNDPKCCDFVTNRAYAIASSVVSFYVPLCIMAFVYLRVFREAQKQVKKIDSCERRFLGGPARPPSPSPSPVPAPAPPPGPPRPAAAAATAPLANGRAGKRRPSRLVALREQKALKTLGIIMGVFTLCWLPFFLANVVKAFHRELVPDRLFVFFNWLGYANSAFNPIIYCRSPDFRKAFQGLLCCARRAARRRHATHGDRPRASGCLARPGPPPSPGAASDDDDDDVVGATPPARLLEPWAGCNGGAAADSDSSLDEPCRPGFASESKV

D(3) dopamine receptor = D(3) dopamine receptor (Homo sapiens, UniProt P35462)
D(3) dopamine receptor, sequence (P35462 whole entry): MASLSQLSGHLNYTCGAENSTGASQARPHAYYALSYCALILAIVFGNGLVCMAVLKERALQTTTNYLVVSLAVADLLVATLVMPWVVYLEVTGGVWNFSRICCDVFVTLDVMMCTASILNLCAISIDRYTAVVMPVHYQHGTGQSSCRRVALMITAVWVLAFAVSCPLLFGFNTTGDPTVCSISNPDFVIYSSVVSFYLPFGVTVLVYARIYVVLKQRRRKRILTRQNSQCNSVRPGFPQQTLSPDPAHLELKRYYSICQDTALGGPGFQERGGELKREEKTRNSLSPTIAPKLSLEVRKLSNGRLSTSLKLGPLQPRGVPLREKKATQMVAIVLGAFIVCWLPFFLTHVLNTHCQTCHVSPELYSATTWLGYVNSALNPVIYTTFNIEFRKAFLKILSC

D(1A) dopamine receptor = D(1A) dopamine receptor (Homo sapiens, UniProt P21728); format: functional, cell-based
D(1A) dopamine receptor, sequence (P21728 whole entry): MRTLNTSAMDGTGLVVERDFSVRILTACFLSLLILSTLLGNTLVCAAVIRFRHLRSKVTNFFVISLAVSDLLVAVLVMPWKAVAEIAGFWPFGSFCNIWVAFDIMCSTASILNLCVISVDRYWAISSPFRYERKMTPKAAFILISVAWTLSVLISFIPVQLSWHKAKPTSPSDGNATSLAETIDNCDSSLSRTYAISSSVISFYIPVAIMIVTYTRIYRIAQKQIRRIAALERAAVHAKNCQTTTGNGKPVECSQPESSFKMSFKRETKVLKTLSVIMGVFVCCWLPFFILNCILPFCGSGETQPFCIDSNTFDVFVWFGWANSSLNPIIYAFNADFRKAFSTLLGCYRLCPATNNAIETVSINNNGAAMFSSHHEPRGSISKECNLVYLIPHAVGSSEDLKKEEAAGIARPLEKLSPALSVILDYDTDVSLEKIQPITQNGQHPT

[9] = target: T5, Amine oxidase [flavin-containing] A (Homo sapiens, UniProt P21397); format: functional
T5 sequence (P21397 whole entry): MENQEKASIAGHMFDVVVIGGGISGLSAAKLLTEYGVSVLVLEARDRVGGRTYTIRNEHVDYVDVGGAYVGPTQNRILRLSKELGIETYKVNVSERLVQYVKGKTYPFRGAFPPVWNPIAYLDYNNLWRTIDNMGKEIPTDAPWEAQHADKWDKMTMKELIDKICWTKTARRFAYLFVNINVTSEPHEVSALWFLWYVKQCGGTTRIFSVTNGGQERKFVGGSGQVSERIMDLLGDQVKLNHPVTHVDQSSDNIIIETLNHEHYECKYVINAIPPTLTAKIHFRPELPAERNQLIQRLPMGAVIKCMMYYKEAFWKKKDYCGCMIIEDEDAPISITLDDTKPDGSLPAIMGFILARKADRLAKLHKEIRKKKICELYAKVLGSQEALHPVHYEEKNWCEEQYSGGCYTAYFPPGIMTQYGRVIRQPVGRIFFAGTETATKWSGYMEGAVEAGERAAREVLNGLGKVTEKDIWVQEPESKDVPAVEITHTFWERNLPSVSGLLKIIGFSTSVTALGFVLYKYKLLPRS
Further: assay procedure not described here.

Vasopressin V1a receptor, sequence (P37288 whole entry): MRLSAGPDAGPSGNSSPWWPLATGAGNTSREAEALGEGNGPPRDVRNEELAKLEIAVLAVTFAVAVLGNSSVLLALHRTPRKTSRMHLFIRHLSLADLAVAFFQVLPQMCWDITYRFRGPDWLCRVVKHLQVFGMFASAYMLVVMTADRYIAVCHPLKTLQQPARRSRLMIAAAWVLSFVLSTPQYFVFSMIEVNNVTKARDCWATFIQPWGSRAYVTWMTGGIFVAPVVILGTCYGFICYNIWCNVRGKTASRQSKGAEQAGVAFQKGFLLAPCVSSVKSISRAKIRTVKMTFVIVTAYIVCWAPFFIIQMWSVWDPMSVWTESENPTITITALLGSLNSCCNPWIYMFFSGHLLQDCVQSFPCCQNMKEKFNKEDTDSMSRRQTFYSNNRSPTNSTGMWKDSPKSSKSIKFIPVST

SMILES	AC50 (Vasopressin V1a receptor) [µM]	AC50 [1] [µM]	AC50 (Adenosine receptor A3) [µM]	AC50 [2] [µM]	AC50 [3] [µM]	AC50 [4] [µM]	AC50 (Bile salt export pump) [µM]	AC50 [5] [µM]	AC50 [6] [µM]	AC50 [7] [µM]	AC50 [8] [µM]	AC50 (D(3) dopamine receptor) [µM]	AC50 (D(1A) dopamine receptor) [µM]	AC50 [9] [µM]
C[C@]12CCC(=O)C=C1CC[C@@H]1[C@@H]2[C@@H](O)C[C@@]2(C)[C@H]1CC[C@]2(O)C(=O)CO [HYDROCORTISONE]	> 10	> 10	> 30	> 10	> 30	> 30	> 300	> 10	> 30	> 30	> 10	> 10	> 10	> 10
CCC(C)n1ncn(-c2ccc(N3CCN(c4ccc(OCC5COC(Cn6cncn6)(c6ccc(Cl)cc6Cl)O5)cc4)CC3)cc2)c1=O (stereo not drawn) [ITRACONAZOLE]	> 30	> 30	> 30	> 30	> 30	> 30	0.66	> 30	> 30	> 30	> 30	> 30	> 30	> 30
c1ccc([C@H]2CN3CCSC3=N2)cc1 [LEVAMISOLE]	> 30	> 30	> 30	> 30	> 30	18.8	> 300	> 30	> 30	> 30	> 30	> 30	1.6	> 30
CN1C(C(=O)Nc2ccccn2)=C(O)c2sc(Cl)cc2S1(=O)=O [LORNOXICAM]	> 30	> 10	> 30	> 30	22	> 30	32	> 10	> 30	> 30	> 30	> 30	> 10	> 10
Cc1cccc(Nc2ccccc2C(=O)O)c1C [MEFENAMIC ACID]	> 10	> 10	> 10	> 10	0.26	> 30	150	> 10	> 30	> 30	> 10	> 30	> 10	> 10
C[C@@H](O)[C@H]1C(=O)N2C(C(=O)O)=C(S[C@@H]3CN[C@H](C(=O)N(C)C)C3)[C@H](C)[C@H]12 [MEROPENEM]	> 300	> 300	> 300	> 300	33.4	> 30	> 300	> 300	> 300	> 300	> 300	> 300	> 300	> 300
CNC1Cc2ccccc2N(C)c2ccccc21 (stereo not drawn) [METAPRAMINE]	> 30	> 30	> 30	16	> 30	5.9	> 300	0.95	29	> 30	> 30	> 30	> 30	> 30
CC1(C)NC(=O)N(c2ccc([N+](=O)[O-])c(C(F)(F)F)c2)C1=O [NILUTAMIDE]	> 30	> 30	> 30	> 30	> 30	> 30	> 300	> 30	> 30	> 30	> 30	> 30	> 30	> 30
CC[C@H]1[C@@H](O)[C@@H]2[C@H](CC[C@]3(C)[C@@H]([C@H](C)CCC(=O)O)CC[C@@H]23)[C@@]2(C)CC[C@@H](O)C[C@@H]12 [OBETICHOLIC ACID]	> 30	> 30	23	> 30	27	> 30	> 300	> 30	> 30	> 30	> 30	> 30	> 30	> 30
COc1ccc(CC(C)(C)NC[C@H](O)c2cc(O)cc3c2OCC(=O)N3)cc1 [OLODATEROL]	> 30	> 30	> 30	> 30	17.5	6.3	> 300	> 30	> 30	> 30	0.58	> 30	> 30	> 30
COCCCN1CCC(NC(=O)c2cc(Cl)c(N)c3c2OCC3)CC1 [PRUCALOPRIDE]	> 30	> 30	> 30	> 30	> 30	> 30	> 300	> 30	> 30	28	> 30	> 30	> 30	> 30
Cc1c(C(=O)NN2CCCCC2)nn(-c2ccc(Cl)cc2Cl)c1-c1ccc(Cl)cc1 [RIMONABANT]	30	> 10	3.76	22	> 30	> 30	11.6	> 30	> 30	> 30	> 30	15	> 30	> 30
